The source of these data is PMC9032790.

The test system of assay [1] is McAb [35] (anti-clothianidin antibody). Further details: method as in PMID 25173856. As to conditions: ic-ELISA, cited from earlier work; for cross-reactivity rate: IC50 of clothianidin / IC50 of analogue × 100%.
Assay [2] concerns 1F7-RAb. The experiment in a line: IMI-H-OVA-based heterologous ic-ELISA with 1F7-RAb. As to conditions: for cross-reactivity rate: ic-ELISA, IC50 of clothianidin / IC50 of analogue × 100%. The class given is binding, mouse.
Assay [3] deals with 5C3-RAb. The experiment in a line: THC-H-OVA-based heterologous ic-ELISA with 5C3-RAb. The class given is binding, mouse. As to conditions: for cross-reactivity rate: ic-ELISA, IC50 of clothianidin / IC50 of analogue × 100%.
Assay [4] relates to McAb [23] (anti-clothianidin antibody). Also on record: method as in PMID 23202236. As to conditions: ic-ELISA, cited from earlier work; for cross-reactivity rate: IC50 of clothianidin / IC50 of analogue × 100%.
The next assay relates to 1F7-McAb. The experiment in a line: heterologous ic-ELISA with 1F7-McAb. As to conditions: for cross-reactivity rate: IC50 of clothianidin / IC50 of analogue × 100%.
In assay [5] the test system is PcAb [22] (anti-clothianidin antibody). Also on record: method as in PMID 23527939. As to conditions: ic-ELISA, cited from earlier work; for cross-reactivity rate: IC50 of clothianidin / IC50 of analogue × 100%.
The test system of a further assay is 5C3-McAb. As to the kind of experiment: heterologous ic-ELISA with 5C3-McAb. As to conditions: for cross-reactivity rate: IC50 of clothianidin / IC50 of analogue × 100%.
Assay [6] concerns 5C3-RAb. The experiment in a line: non-competitive SPR with immobilized 5C3-RAb. Type of assay: binding, mouse.
In assay [7] the test system is six potential antibodies from hybridoma culture supernatants. As to the kind of experiment: homologous ic-ELISA hybridoma screening (CLO-H-OVA). As to conditions: free clothianidin 50 μg/L; CLO-H-OVA 5 μg/mL.
Assay [8] has as its system 1F7-RAb. As to the kind of experiment: non-competitive SPR with immobilized 1F7-RAb. Type of assay: binding, mouse.
Assay [9] concerns 1F7-RAb. The experiment in a line: 1F7-RAb-based GICA, selectivity and sensitivity in standard solution. The class given is binding, mouse. As to conditions: analyte at 1000 μg/L, judged with the naked eye.
Setting [10] is: 8 neonicotinoids at the same concentration of 50 nM.
Setting [11] is: SPR, 1:1 binding kinetic model, read-out: KD (dissociation equilibrium constant).

In brackets after ≈: the same amount, converted by molar mass. Marks after values point to notes of the source that are not given here. A value given as a limit tells only on which side of the number the result lay.

For `CCN(Cc1ccc(Cl)nc1)/C(=C\[N+](=O)[O-])NC` [C00007], the cross-reactivity rate in assay [1] is listed as <0.03%; with 1F7-RAb [2], <0.1%; in the assay on 5C3-RAb [3], <0.1%; in assay [4], <0.1%; in the assay on 1F7-McAb, <0.1%; in assay [5], <0.05%. The cross-reactivity rate with 5C3-McAb is <0.1%.
As to `CN1COCN(Cc2cnc(Cl)s2)/C1=N/[N+](=O)[O-]` [C00006], the cross-reactivity rate in [1] was <0.03%; in the assay with 1F7-RAb [2], <0.1%; in the assay on 5C3-RAb [3], <0.1%; in assay [4], <0.1%; with 1F7-McAb, <0.1%; in [5] it was <0.05%. Further, in the assay on 5C3-McAb, the cross-reactivity rate was <0.1%.
On to `C/C(=N\C#N)N(C)Cc1ccc(Cl)nc1` [C00004], for which the cross-reactivity rate in assay [1] is <0.03%; with 1F7-RAb [2], <0.1%; with 5C3-RAb [3], <0.1%; in assay [4], <0.1%; in the assay with 1F7-McAb, <0.1%; in [5], <0.05%. For the same compound, the cross-reactivity rate in the assay on 5C3-McAb is <0.1%.
As for `CN/C(=N\[N+](=O)[O-])NCc1cnc(Cl)s1` [clothianidin], the cross-reactivity rate (in assay [1]; with 1F7-RAb [2]; in the assay with 5C3-RAb [3]; in assay [4]; in the assay with 1F7-McAb; in assay [5]) was 100% in each case. Further, in the assay with 5C3-McAb, the cross-reactivity rate came to 100%. Also, the IC50 value in assay [1] is 25.6 ng/mL (≈ 0.103 µM); in the assay with 1F7-RAb [2] (heterologous ic-ELISA, 1.25 μg/mL of IMI-H-OVA), 4.62 ng/mL (≈ 0.0185 µM); in the assay with 5C3-RAb [3] (heterologous ic-ELISA, 5 μg/mL of THC-H-OVA, listed as C00001) it was 5.22 ng/mL (≈ 0.0209 µM); in [4] it was 4.4 ng/mL (≈ 0.0176 µM); with 1F7-McAb it was 5.38 ng/mL (≈ 0.0215 µM); in assay [5], 46 ng/mL (≈ 0.184 µM). In addition, the IC50 value with 5C3-McAb was 13.16 ng/mL (≈ 0.0527 µM). The “SPR binding selectivity signal” value in the assay with 5C3-RAb [6] (setting [10]) and in the assay on 1F7-RAb [8] (setting [10]) was “high signal” throughout. Also, the values for the Kd on 5C3-RAb [6] (setting [11]) and on 1F7-RAb [8] (setting [11]) were 7.96 nM and 3.24 nM, respectively. Also, the “inhibition of binding of CLO-H-OVA to antibodies” value in assay [7] is “less than 11%”. For the same compound, the “GICA cross-reaction test, effect on T line” value in the assay with 1F7-RAb [9] was “complete disappearance of the T line”.
For `O=[N+]([O-])/N=C1/NCCN1Cc1cnc(Cl)s1` [C00008], the cross-reactivity rate in assay [1] is on record as <0.03%; with 1F7-RAb [2], <0.1%; in the assay on 5C3-RAb [3] it was <0.1%; in assay [4], <0.1%; in the assay with 1F7-McAb it was <0.1%; in assay [5] it was <0.05%. Also, the cross-reactivity rate with 5C3-McAb is <0.1%.
With `N#C/N=C1\SCCN1Cc1ccc(Cl)nc1` [C00005], the cross-reactivity rate is listed as <0.03% in assay [1]; <0.1% in the assay on 1F7-RAb [2]; <0.1% in the assay on 5C3-RAb [3]; <0.1% in assay [4]; <0.1% with 1F7-McAb; <0.05% in assay [5]. For the same compound, the cross-reactivity rate in the assay on 5C3-McAb was <0.1%.
On to `CN/C(=N/CC1CCOC1)N[N+](=O)[O-]` (stereo not shown) [dinotefuran], for which the cross-reactivity rate in [1] is given as 47.8%; in the assay on 1F7-RAb [2], “no obvious cross-reaction”; in the assay with 1F7-RAb [2] (listed as C00002), <0.1%; in the assay with 5C3-RAb [3], 56%; in assay [4], 64%; with 1F7-McAb, <0.1%. Also, the cross-reactivity rate is reported as 11.8 ^c % in assay [5] and 42.4% with 5C3-McAb.
Regarding `O=[N+]([O-])/N=C1\NCCN1Cc1ccc(Cl)nc1` [C00003], the cross-reactivity rate is <0.03% in [1]; <0.1% in the assay with 1F7-RAb [2]; <0.1% with 5C3-RAb [3]; <0.1% in assay [4]; <0.1% in the assay with 1F7-McAb; 0.8% in [5]. Also, the cross-reactivity rate in the assay on 5C3-McAb was <0.1%.
